Laboratory results from PubChem BioAssay (NCI).
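Each compound was tested at five concentrations against cells in 96-well plates for 48 hours. TGI: concentration producing complete growth inhibition.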

What was measured:
Test in all cases: DTP human tumour cell line panel, 48 h
[1] = system: HOP-18 NSCLC
[2] = system: XF 498 CNS
[3] = system: BT-549 breast
[4] = system: DLD-1 colon
[5] = system: SF-268 CNS
[6] = system: ACHN renal
[7] = system: SK-MEL-28 melanoma
[8] = system: HCT-15 colon
[9] = system: NCI-H23 lung
[10] = system: CCRF-CEM leukemia
[11] = system: SR leukemia
[12] = system: SN12C renal
[13] = system: SF-539 CNS
[14] = system: M14 melanoma
[15] = system: OVCAR-8 ovarian
[16] = system: SK-MEL-5 melanoma
[17] = system: KM12 colon
[18] = system: 786-0 renal
[19] = system: NCI/ADR-RES ovarian
[20] = system: SNB-78 CNS
[21] = system: PC-3 prostate
[22] = system: SW-620 colon
[23] = system: SNB-19 CNS
[24] = system: A498 renal
[25] = system: NCI-H226 lung
[26] = system: A549 NSCLC
[27] = system: LOX IMVI melanoma
[28] = system: HOP-92 NSCLC
[29] = system: MOLT-4 leukemia
[30] = system: HS 578T breast
[31] = system: HOP-62 NSCLC
[32] = system: COLO 205 colon
[33] = system: HT29 colon
[34] = system: OVCAR-3 ovarian
[35] = system: SK-OV-3 ovarian
[36] = system: T-47D breast
[37] = system: OVCAR-5 ovarian
[38] = system: NCI-H522 lung
[39] = system: UACC-62 melanoma
[40] = system: U251 CNS
[41] = system: MDA-MB-435
[42] = system: HCC-2998 colon
[43] = system: CAKI-1 renal
[44] = system: RXF 393 renal
[45] = system: KM20L2 colon
[46] = system: MDA-MB-231 breast
[47] = system: UACC-257 melanoma
[48] = system: OVCAR-4 ovarian
[49] = system: MALME-3M melanoma
[50] = system: RPMI-8226 leukemia
[51] = system: EKVX NSCLC
[52] = system: UO-31 renal
[53] = system: LXFL 529 NSCLC
[54] = system: DMS 114 small cell lung
[55] = system: TK-10 renal
[56] = system: K-562 leukemia
[57] = system: MCF7 breast
[58] = system: MDA-N
[59] = system: DMS 273 small cell lung
[60] = system: NCI-H460 lung
[61] = system: DU-145 prostate
[62] = system: SK-MEL-2 melanoma
[63] = system: SF-295 CNS
[64] = system: SNB-75 CNS
[65] = system: HL-60(TB) leukemia
[66] = system: HCT-116 colon
[67] = system: IGROV1 ovarian
[68] = system: M19-MEL melanoma
[69] = system: RXF-631 renal

CC(C)(CN1CCCCC1)C(=O)/C=C/c1ccc(/C=C/C(=O)C(C)(C)CN2CCCCC2)cc1
TGI [1]: 2.57 µM | TGI [2]: 1.28 µM | TGI [3]: 3.35 µM | TGI [4]: 0.323 µM | TGI [5]: 1.71 µM | TGI [6]: 0.669 µM | TGI [7]: 2.65 µM | TGI [8]: 0.703 µM | TGI [9]: 2.04 µM | TGI [10]: 0.234 µM | TGI [11]: 0.646 µM | TGI [12]: 0.589 µM | TGI [13]: 1.55 µM | TGI [14]: 3.26 µM | TGI [15]: 3.57 µM | TGI [16]: 1.98 µM | TGI [17]: 1.35 µM | TGI [18]: 2.79 µM | TGI [19]: 2.36 µM | TGI [20]: 7.17 µM | TGI [21]: 0.82 µM | TGI [22]: 0.463 µM | TGI [23]: 3.15 µM | TGI [24]: 3.08 µM | TGI [25]: 3.77 µM | TGI [26]: 2.97 µM | TGI [27]: 0.856 µM | TGI [28]: 1.58 µM | TGI [29]: 0.33 µM | TGI [30]: 3.2 µM | TGI [31]: 2.19 µM | TGI [32]: 0.418 µM | TGI [33]: 0.514 µM | TGI [34]: 1.17 µM | TGI [35]: 2.91 µM | TGI [36]: 1.65 µM | TGI [37]: 1.57 µM | TGI [38]: 0.167 µM | TGI [39]: 2.35 µM | TGI [40]: 1.18 µM | TGI [41]: 0.984 µM | TGI [42]: 1.07 µM | TGI [43]: 0.904 µM | TGI [44]: 0.745 µM | TGI [45]: 1.65 µM | TGI [46]: 0.476 µM | TGI [47]: 2.13 µM | TGI [48]: 1.47 µM | TGI [49]: 2.24 µM | TGI [50]: 0.663 µM | TGI [51]: 4.21 µM | TGI [52]: 2.54 µM | TGI [53]: 0.682 µM | TGI [54]: 1.95 µM | TGI [55]: 2.31 µM | TGI [56]: 0.375 µM | TGI [57]: 1.77 µM | TGI [58]: 0.401 µM | TGI [59]: 1.23 µM | TGI [60]: 1.96 µM | TGI [61]: 5.05 µM | TGI [62]: 4.62 µM | TGI [63]: 1.68 µM | TGI [64]: 1.82 µM | TGI [65]: 0.714 µM | TGI [66]: 1.1 µM | TGI [67]: 1.52 µM | TGI [68]: 2.35 µM

Cc1c(Cl)cccc1NC(=O)C(=O)C(C(=O)c1ccccc1-c1ccccc1)C1OC(=O)c2ccccc21 (stereo not drawn)
TGI [2]: 29.3 µM | TGI [4]: 49.1 µM | TGI [5]: 61.7 µM | TGI [7]: 44.7 µM | TGI [9]: 30.3 µM | TGI [10]: 96.9 µM | TGI [13]: 28.1 µM | TGI [14]: 36.3 µM | TGI [15]: > 100 µM | TGI [16]: 29.9 µM | TGI [17]: 39.4 µM | TGI [18]: 33.3 µM | TGI [20]: > 100 µM | TGI [22]: 49 µM | TGI [25]: 18.1 µM | TGI [26]: 66.8 µM | TGI [27]: 39.5 µM | TGI [28]: 34.4 µM | TGI [29]: 57.8 µM | TGI [31]: 35.5 µM | TGI [32]: 39.7 µM | TGI [33]: > 100 µM | TGI [34]: 33.8 µM | TGI [35]: > 100 µM | TGI [37]: 46.9 µM | TGI [38]: 26.4 µM | TGI [39]: 37.3 µM | TGI [40]: 29.2 µM | TGI [42]: 31.2 µM | TGI [44]: 27.1 µM | TGI [45]: 51.4 µM | TGI [47]: 46.8 µM | TGI [49]: 28.8 µM | TGI [50]: 59.1 µM | TGI [51]: 59 µM | TGI [52]: 49.4 µM | TGI [53]: 27.9 µM | TGI [54]: 43.5 µM | TGI [55]: 57.6 µM | TGI [56]: > 100 µM | TGI [59]: 77 µM | TGI [60]: 76.3 µM | TGI [62]: 32.6 µM | TGI [63]: 45 µM | TGI [64]: 42.1 µM | TGI [65]: 49.8 µM | TGI [69]: 71.6 µM | TGI [66]: 25 µM | TGI [67]: > 100 µM | TGI [68]: 34.8 µM
